For the test, the target named is T1, full-length human P2X7 receptor (HEK-293-hP2X7-R cells) (Homo sapiens, UniProt Q99572).
T1 construct: For transfections, the full length human P2X7 receptor; expressed in transfected cells; host or cells: HEK-293, pcDNA-6 vector
T1 sequence (Q99572 1-595): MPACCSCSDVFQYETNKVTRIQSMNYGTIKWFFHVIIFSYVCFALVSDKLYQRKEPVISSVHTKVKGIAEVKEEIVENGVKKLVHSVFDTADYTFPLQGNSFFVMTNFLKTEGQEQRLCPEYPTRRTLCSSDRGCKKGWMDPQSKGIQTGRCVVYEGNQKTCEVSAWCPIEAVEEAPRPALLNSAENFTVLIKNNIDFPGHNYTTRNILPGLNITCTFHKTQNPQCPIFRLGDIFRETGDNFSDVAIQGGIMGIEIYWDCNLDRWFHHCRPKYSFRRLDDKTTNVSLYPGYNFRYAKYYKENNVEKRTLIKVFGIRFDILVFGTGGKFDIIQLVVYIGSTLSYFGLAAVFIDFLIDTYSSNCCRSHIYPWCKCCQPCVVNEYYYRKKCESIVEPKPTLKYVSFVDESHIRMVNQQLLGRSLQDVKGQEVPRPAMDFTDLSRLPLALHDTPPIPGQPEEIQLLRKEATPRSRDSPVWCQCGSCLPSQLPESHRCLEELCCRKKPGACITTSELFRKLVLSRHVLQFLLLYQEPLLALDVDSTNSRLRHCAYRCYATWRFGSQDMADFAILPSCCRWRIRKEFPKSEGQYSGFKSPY
The test is described as follows: Ethidium bromide influx in HEK-293-hP2X7-R and wild-type HEK293 cells on filters. It is filed as cell-based.

In the case of “2′-3′-O-(4-benzoylbenzoyl)adenosine 5′-triphosphate [BzATP]”, the “influx of ethidium bromide” value is “influx of ethidium bromide”.

These data come from patent US7767789B2, “Truncated proteins as cancer markers” (University Hopitals of Cleveland, priority 2005, dated 2010).
